Reference: patent publication US10294202B2, “Pyrrolidinones as herbicides” (FMC Corporation, priority 2013, dated 2019)

Columns and labels:
giant foxtail = test: Test A pre-/postemergence herbicide test; format: in vivo, Setaria faberii
How it was run: (§1)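 Seeds in loam–sand blend received preemergence directed soil spray; separately, plants 2–10 cm at one- to two-leaf stage received postemergence spray, both with test chemicals in non-phytotoxic solvent with surfactant. After ~10 days in greenhouse, injury rated visually against untreated controls, 0 (no effect) to 100 (complete control).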

blackgrass = test: Test C pre-/postemergence herbicide test; format: in vivo, Alopecurus myosuroides
How it was run: (§2)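 Pre-emergence: seeds sown in loam/sand blend and treated with compound in surfactant-containing solvent. Post-emergence: plants at 2–18 cm (1- to 4-leaf stage) in peat-based medium sprayed with the same formulation. Visual rating versus controls after 13–15 days in greenhouse, scale 0 (no effect) to 100 (complete control).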

barnyardgrass [1] = test: Test A pre-/postemergence herbicide test; format: in vivo, Echinochloa crus-galli
How it was run: as §1

ragweed = test: Test C pre-/postemergence herbicide test; format: in vivo, Ambrosia elatior
How it was run: as §2

rice = test: Test B flooded paddy test; format: in vivo, Oryza sativa; conditions: 500 g ai/ha, Flood; scale of 0 to 100 where 0 is no effect and 100 is complete control
How it was run: (§3)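 In-water application to pots flooded 3 cm deep, plants at 2-leaf stage. Held in greenhouse 13–15 days at constant flood depth. Scored 0–100 by eye against controls.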

barnyardgrass [2] = test: Test C pre-/postemergence herbicide test; format: in vivo, Echinochloa crus-galli
How it was run: as §2

sedge, umbrella = test: Test B flooded paddy test; format: in vivo, Cyperus difformis; conditions: 500 g ai/ha, Flood; scale of 0 to 100 where 0 is no effect and 100 is complete control
How it was run: as §3

morningglory = test: Test C pre-/postemergence herbicide test; format: in vivo, Ipomoea coccinea
How it was run: as §2

ducksalad = test: Test B flooded paddy test; format: in vivo, Heteranthera limosa; conditions: 500 g ai/ha, Flood; scale of 0 to 100 where 0 is no effect and 100 is complete control
How it was run: as §3

barnyardgrass [3] = test: Test B flooded paddy test; format: in vivo, Echinochloa crus-galli; conditions: 500 g ai/ha, Flood; scale of 0 to 100 where 0 is no effect and 100 is complete control
How it was run: as §3

corn = test: Test A pre-/postemergence herbicide test; format: in vivo, Zea mays; conditions: Postemergence
How it was run: as §1

soybean = test: Test C pre-/postemergence herbicide test; format: in vivo, Glycine max
How it was run: as §2

crabgrass, large = test: Test C pre-/postemergence herbicide test; format: in vivo, Digitaria sanguinalis
How it was run: as §2

[4] = Postemergence, 125 g ai/ha, 0 to 100 scale, 0 is no effect, 100 is complete control
[5] = Postemergence, 500 g ai/ha, 0 to 100 scale (0 no effect, 100 complete control)
[6] = Preemergence, 125 g ai/ha, 0 to 100 scale where 0 is no effect and 100 is complete control
[7] = preemergence, 500 g ai/ha, 0 to 100 scale, 0 is no effect and 100 is complete control
[8] = Postemergence, 16 g ai/ha, scale 0 to 100 (0 no effect, 100 complete control)
[9] = Postemergence, 31 g ai/ha, scale 0 to 100 (0 no effect, 100 complete control)
[10] = Postemergence, 62 g ai/ha, scale 0 (no effect) to 100 (complete control)
[11] = Postemergence, 125 g ai/ha, scale 0 to 100 (0 no effect, 100 complete control)
[12] = Preemergence, 31 g ai/ha, scale 0 to 100, 0 is no effect and 100 is complete control
[13] = Preemergence, 62 g ai/ha, scale 0 to 100 (0 no effect, 100 complete control)
[14] = Preemergence, 125 g ai/ha, scale 0 to 100 (0 no effect, 100 complete control)
[15] = Preemergence, 16 g ai/ha, scale 0 to 100

CN1CC(c2cccc(C(F)(F)F)c2)C(C(=O)Nc2ccccc2F)C1=O (centres unmarked) [Compound 277]
15: Plant response rating, Barnyardgrass (barnyardgrass [2]; [9]) | Plant response rating, Morningglory (morningglory; [8]) | Plant response rating, Crabgrass, Large (crabgrass, large; [9])
5: Plant response rating, Barnyardgrass (barnyardgrass [2]; [8]) | Plant response rating, Soybean (soybean; [14]) | Plant response rating, Crabgrass, Large (crabgrass, large; [8])
90: Plant response rating, Foxtail, Giant (giant foxtail; [4]) | Plant response rating, Foxtail, Giant (giant foxtail; [5]) | Plant response rating, Foxtail, Giant (giant foxtail; [6]) | Plant response rating, Foxtail, Giant (giant foxtail; [7]) | Plant response rating, Blackgrass (blackgrass; [14]) | Plant response rating, Barnyardgrass (barnyardgrass [1]; [4]) | Plant response rating, Barnyardgrass (barnyardgrass [1]; [5]) | Plant response rating, Barnyardgrass (barnyardgrass [1]; [6]) | Plant response rating, Barnyardgrass (barnyardgrass [1]; [7]) | Plant response rating, Barnyardgrass (barnyardgrass [3]) | Plant response rating, Corn (corn; 125 g ai/ha, 0 to 100 scale, 0 is no effect, 100 is complete control) | Plant response rating, Corn (corn; 500 g ai/ha, 0 to 100 scale (0 no effect, 100 complete control))
80: Plant response rating, Barnyardgrass (barnyardgrass [2]; [11])
98: Barnyardgrass plant response rating (barnyardgrass [2]; [13]) | Plant response rating, Barnyardgrass (barnyardgrass [2]; [14]) | Crabgrass, Large plant response rating (crabgrass, large; [12])
10: Plant response rating, Ragweed (ragweed; [8])
45: Plant response rating, Morningglory (morningglory; [14])
65: Plant response rating, Crabgrass, Large (crabgrass, large; [10])
30: Plant response rating, Morningglory (morningglory; [9]) | Plant response rating, Morningglory (morningglory; [10])
70: Blackgrass plant response rating (blackgrass; [12]) | Blackgrass plant response rating (blackgrass; [13]) | Plant response rating, Barnyardgrass (barnyardgrass [2]; [10]) | Plant response rating, Crabgrass, Large (crabgrass, large; [11])
95: Barnyardgrass plant response rating (barnyardgrass [2]; [12]) | Plant response rating, Barnyardgrass (barnyardgrass [2]; [15]) | Plant response rating, Crabgrass, Large (crabgrass, large; [15])
100: Plant response rating, Ducksalad (ducksalad) | Crabgrass, Large plant response rating (crabgrass, large; [13]) | Plant response rating, Crabgrass, Large (crabgrass, large; [14])
40: Plant response rating, Blackgrass (blackgrass; [15]) | Plant response rating, Ragweed (ragweed; [9]) | Plant response rating, Ragweed (ragweed; [11]) | Plant response rating, Ragweed (ragweed; [14]) | Plant response rating, Morningglory (morningglory; [11])
0: Plant response rating, Blackgrass (blackgrass; [8]) | Plant response rating, Blackgrass (blackgrass; [9]) | Plant response rating, Blackgrass (blackgrass; [10]) | Plant response rating, Blackgrass (blackgrass; [11]) | Ragweed plant response rating (ragweed; [12]) | Ragweed plant response rating (ragweed; [13]) | Plant response rating, Ragweed (ragweed; [15]) | Plant response rating, Rice (rice) | Plant response rating, Sedge, Umbrella (sedge, umbrella) | Morningglory plant response rating (morningglory; [12]) | Morningglory plant response rating (morningglory; [13]) | Plant response rating, Morningglory (morningglory; [15]) | Plant response rating, Soybean (soybean; [8]) | Plant response rating, Soybean (soybean; [9]) | Plant response rating, Soybean (soybean; [10]) | Plant response rating, Soybean (soybean; [11]) | Soybean plant response rating (soybean; [12]) | Soybean plant response rating (soybean; [13]) | Plant response rating, Soybean (soybean; [15])
35: Plant response rating, Ragweed (ragweed; [10])
